Test results: patent US20250275948A1, “(N-[4-(2,3-DIHYDRO-1H-INDEN-5-YL)-1,3-THIAZOL-2-YL]-2-[4-METHYL-4-(NAPHTHALEN-2-YL)-2,5-DIOXOIMIDAZOLIDIN-1-YL]ACETAMIDE AS STABILIZER OF CLOCK:BMAL1 INTERACTION FOR THE TREATMENT OF CIRCADIAN RHYTHM DISEASES AND DISORDERS” (KOC UNIVERSITESI, priority 2022, published 2025)

What was measured:
CLOCK and BMAL1 [1] = experiment: Effect on core clock protein levels (western blot), U2OS Bmal1-dLuc cells; type: cell-based, human; conditions: unsynchronized U2OS Bmal1:dLuc cells, 24 hours
Protocol: The effect of CLK95 on core-clock proteins was assessed both on synchronized and unsynchronized U2OS Bmal1-dLuc cells. Cells were seeded into 6 well-plates with a density of 45×10^4 cell/well and incubated at 37° C. under 5% CO2 for 16 hours. For unsynchronized cells, they were treated with appropriate amounts CLK95 (final 0.25% DMSO) and further incubated for 24 hours. For synchronized cells, cell media was exchanged with 0.1 μM Dexamethasone containing DMEM. After synchronization, cells were subjected to the CLK95 (final 0.25% DMSO). After 24 hours of incubation, cells were harvested with 6 hours intervals for 7 time points (24H-60H). Then harvested cells were lysed with 90 μL RIPA buffer (50 mM Tris-HCl pH 7.4, 150 mM NaCl, 1% Triton x-100, 0.1% SDS, 1×PIC) and left for an incubation on ice for 30 minutes. Following, samples were centrifugated at 15000×g for 20 minutes at 4° C. After boiling samples with Laemmli buffer for 7 minutes at 95° C., 10 μg of protein was loaded for each sample to 10% SDS-polyacrylamide gel. For Western blot analysis following antibodies used to determine the level of core clock proteins: anti-CLOCK (Bethyl, A302-618A), anti-BMAL1 (Santa Cruz Biotech., SC-365645), anti-PER2 (Proteintech, 67513-1-Ig), anti-CRY1 (Bethyl, A302-614A), and anti-β-Actin (Cell Signaling, 8H10D10) antibodies.

CLOCK and BMAL1 [2] = experiment: Subcellular fractionation of U2OS Bmal1-dLuc cells; type: cell-based, human; conditions: unsynchronized U2OS Bmal1-dLuc cells, 5 μM, 24 hours
Protocol: Subcellular fractionation was performed to explore if CLK95 effects the subcellular localization of core-clock proteins. U2OS Bmal1-dLuc cells were plated with a density of 40×10^4 cell/well in 6 well plate, a day prior to small molecule treatment. Following, cells were treated with either DMSO (0.25%) or 5 μM CLK95. 24 hours after small molecule treatment, cells were harvested to get fractionated. Cells were harvested with 1 mL ice cold-1×PBS, and pelleted at 5000×g for 7 minutes at 4° C. After discarding supernatants, cells were resuspended with 200 μL Cytosolic Lysis Buffer (CLB) (10 mM HEPES pH 7.9, 10 mM KCl, 0.1 mM EDTA pH 8.0, 0.05% NP-40, 1×PIC) and incubated on ice for 10 minutes. Then, samples were centrifuged at 660×g for 5 minutes (4° C.). While supernatants were transferred to new centrifuge tubes as cytosolic fractions, pellets were washed with 200 μL CLB buffer for 3 times. At the end of each wash, samples were centrifugated at 660×g for 5 minutes at 4° C. Next, cell pellets were resuspended in 100 μL Nuclear Lysis Buffer (NLB) (20 mM HEPES pH 7.9, 0.4M NaCl, 1 mM EDTA, 10% Glycerol, 1×PIC) and subjected to sonication (60% power, 10 seconds, 3 cycles) (BANDELIN SONOPULS HD 2070 homogeniser) for 2 times. This step was followed by centrifugation at 15000×g for 5 minutes with the cytosolic fractions. […]

CLOCK:BMAL1 complex = biological target: T1, CLOCK:BMAL1 complex (Homo sapiens, UniProt O00327+O15516); experiment: Pull-down assay with biotinylated-CLK95; type: binding; conditions: 20 μM bCLK95 bait, 200 μM CLK95 competitor; HEK 293T and U2OS lysates
T1 construct: expressed in transfected cells; host or cells: HEK 293T
Protocol: To perform pull-down assay HEK 293T cells were transiently transfected with either 10 μg pCMV-Sport6-CLOCK or 10 μg pCMV-Sport6-Bmal1 plasmids. First, cells were seeded in a 10 cm cell culture dish at a density which will give ˜70-80% confluency next day. Then cells were transfected with 10 μg of the appropriate plasmid using 30 μL PEI in 1 mL DMEM. Cells were harvested 24 hours post-transfection and divided into four 1.5 mL centrifuge tubes. The conditions that were employed to probe the binding of the molecule to proteins contained a) only CLOCK overexpressed, b) only BMAL1 overexpressed and c) CLOCK-BMAL1 overexpressed mixtures. Pellet for each condition was lysed with 500 μL Lysis Buffer (50 mM Tris-HCl PH 7.4, 2 mM EDTA, 1 mM MgCl2, 0.2% NP-40, 1 mM Na3VO4, 1 mM NaF, 1×PIC) and incubated on ice for 20 minutes. Then samples were centrifuged at 7000×g for 10 minutes at 4° C. The supernatants of the CLOCK and BMAL1 lysates were mixed at 1:1 ratio. Following this step, collected lysate mixture was mixed with 2× binding buffer (100 mM Tris-HCl pH 7.4, 300 mM NaCl, 0.2% NP-40, 2 mM Na3VO4, 2 mM NaF, 2×PIC) at 1:1 ratio. […]

T1 sequence (O15516 whole entry): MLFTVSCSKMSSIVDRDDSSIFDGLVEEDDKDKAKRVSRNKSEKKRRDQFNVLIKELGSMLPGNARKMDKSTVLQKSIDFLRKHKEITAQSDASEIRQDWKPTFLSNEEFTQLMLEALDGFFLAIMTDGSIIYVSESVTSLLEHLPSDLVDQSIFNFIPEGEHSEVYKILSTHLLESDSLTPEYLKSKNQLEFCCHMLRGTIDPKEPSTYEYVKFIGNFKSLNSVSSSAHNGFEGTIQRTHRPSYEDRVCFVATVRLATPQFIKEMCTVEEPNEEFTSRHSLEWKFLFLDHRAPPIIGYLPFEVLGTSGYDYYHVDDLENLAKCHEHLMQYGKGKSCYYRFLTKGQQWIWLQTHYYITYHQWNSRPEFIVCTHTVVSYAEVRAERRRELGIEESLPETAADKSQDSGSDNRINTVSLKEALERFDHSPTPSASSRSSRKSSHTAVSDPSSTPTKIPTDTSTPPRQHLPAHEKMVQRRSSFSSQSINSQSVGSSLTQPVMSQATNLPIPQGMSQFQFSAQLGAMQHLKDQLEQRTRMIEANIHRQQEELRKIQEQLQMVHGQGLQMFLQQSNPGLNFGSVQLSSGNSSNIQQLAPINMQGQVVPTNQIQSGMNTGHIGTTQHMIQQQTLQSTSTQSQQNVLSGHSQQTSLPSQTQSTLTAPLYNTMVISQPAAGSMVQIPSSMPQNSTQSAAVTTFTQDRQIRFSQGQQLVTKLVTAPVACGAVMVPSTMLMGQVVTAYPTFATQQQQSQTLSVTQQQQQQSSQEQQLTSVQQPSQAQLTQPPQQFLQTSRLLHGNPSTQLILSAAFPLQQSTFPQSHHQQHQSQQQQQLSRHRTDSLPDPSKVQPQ
T1 sequence (O00327 whole entry): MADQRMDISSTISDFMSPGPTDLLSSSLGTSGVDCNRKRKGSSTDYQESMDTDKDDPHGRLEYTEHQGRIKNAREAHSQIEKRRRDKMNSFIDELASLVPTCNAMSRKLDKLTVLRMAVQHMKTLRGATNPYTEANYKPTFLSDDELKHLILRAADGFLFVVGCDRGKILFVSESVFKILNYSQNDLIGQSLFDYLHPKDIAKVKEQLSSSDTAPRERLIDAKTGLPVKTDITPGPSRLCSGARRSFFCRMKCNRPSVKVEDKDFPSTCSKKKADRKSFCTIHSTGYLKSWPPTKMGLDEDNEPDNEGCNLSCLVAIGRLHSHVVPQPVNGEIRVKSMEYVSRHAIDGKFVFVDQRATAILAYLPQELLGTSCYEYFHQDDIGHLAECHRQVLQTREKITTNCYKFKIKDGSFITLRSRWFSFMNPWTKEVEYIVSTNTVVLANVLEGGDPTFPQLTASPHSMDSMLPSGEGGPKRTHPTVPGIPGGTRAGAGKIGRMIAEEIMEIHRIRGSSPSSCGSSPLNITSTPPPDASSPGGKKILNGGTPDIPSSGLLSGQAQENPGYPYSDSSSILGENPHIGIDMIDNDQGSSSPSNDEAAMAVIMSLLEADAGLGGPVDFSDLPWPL

## CC1(c2ccc3ccccc3c2)NC(=O)N(CC(=O)Nc2nc(-c3ccc4c(c3)CCC4)cs2)C1=O (stereo not drawn) [CLK95]
CLOCK and BMAL1 [1]
  CLOCK and BMAL1 protein levels: increased
CLOCK and BMAL1 [2]
  nuclear localization of CLOCK and BMAL1: increasing the nuclear localization of CLOCK and BMAL1
CLOCK:BMAL1 complex
  binding in pull-down: specifically binding to CLOCK:BMAL1 complex
